Experimental data taken from patent US12605384B2, “Uses” (INTRA-CELLULAR THERAPIES, INC., priority 2018, dated 2026).
Where a name gives a salt, the structure may show the parent alone.

Key:
[1] = test system: normal and failing canine hearts; experiment: Conscious pressure-volume hemodynamic analysis in dogs; format: in vivo, dog
Description: (§1) Dogs are studied in the conscious state before and after inducing dilated cardiomyopathy by tachypacing for two weeks at 200 bpm.
(§2) The study employs two doses, 0.01 and 0.1 mg/kg, the latter administered 30 minutes after the first.
Load insensitive indexes of contractility (dP/dtmax/IP and PRSW) increased.

plasma cAMP and cGMP = experiment: Plasma cAMP and cGMP by ELISA in dogs; format: in vivo, dog; details: for plasma cGMP: normal and HF models, all conditions
Description: Blood plasma is obtained from these animals, and cAMP and cGMP are assayed by ELISA.

[2] = test system: normal adult rabbit myocytes; experiment: Contraction and calcium transients in isolated rabbit cardiomyocytes; format: cell-based; parameters: effect on contraction and calcium transients: dose or concentration left out as unconfirmed
Description: To test whether PDE1 inhibition directly impacts cardiomyocyte contraction and calcium transients, studies are carried out on normal adult rabbit myocytes. […] As PDE1 requires sufficient cAMP and Ca^2+ to be impactful, a dose response was performed to the adenylate cyclase activator, forskolin (FSK) to determine the lowest dose producing a modest but significant inotropic effect (1 μM).
Rabbit myocytes were isolated to determine the effect of PDE1 inhibition on cardiomyocyte contraction and whole cell Ca2+ transients, and to compare the results to those with a PDE3 inhibitor, cilostamide (Cil, 1 μM).

[3] = test system: New Zealand White rabbits; experiment: Pressure-volume hemodynamics in anesthetized rabbits; format: in vivo, rabbit; details: for hemodynamic effects: atrially paced
From the text: Cyclic AMP is generated largely by transmembrane adenylyl cyclases activated via stimulatory G protein (Gs), with β-adrenergic, adenosine (primarily […]), glucagon, prostanoids, histamine, and serotonin all coupling to Gs in cardiomyocytes. The present studies focus on beta-adrenergic and adenosine receptors, and for the latter, concentrated on the A2B receptor, which has been reported to directly stimulate cAMP-dependent contractility. […] Relaxation changes are also modest with LV preload (end-diastolic and volume) unaltered; however, the combined vasodilator-inotropic response doubled ventricular/arterial coupling ratio, Ees/Ea.
New Zealand White rabbits (male, 2-3 kg) are sedated with 35 mg/kg ketamine and 5 mg/kg xylazine, intubated and ventilated (Model 683, Harvard Apparatus, Holliston, MA), with anesthesia maintained with isoflurane inhalation (1-2%). A pressure-volume catheter (SPR-894, Millar, Inc., Houston, TX) is inserted via the common carotid artery and advanced to the LV apex, and a 2-Fr pacing catheter is positioned in the right atrium via the right jugular vein to provide atrial pacing. […] The parallel conductance is determined by the hypertonic saline injection method. Rabbits are infused with 6% hetastarch in saline during the procedure to stabilize arterial pressure.

myocyte cAMP = experiment: Whole cell cAMP in rabbit myocytes; format: cell-based; details: for whole cell cAMP: alone or combined with Iso; for cAMP: added to Fsk
From the text: This is consistent with prior studies showing locally generated cAMP from β-AR and its modulation by PDE3 occur in local subcellular domains that are not easily detected in whole cell lysates32.

[4] = Plasma pharmacokinetics in heart failure patients; format: in vivo, human; details: 10, 30, 90 mg
Description: (§3) A further group was administered placebo.
(§4) Hemodynamic monitoring began 30-60 minutes prior to the pre-dose echocardiogram through to 5-6 hours post-dose.

[5] = test system: patients with stable chronic systolic HF; experiment: Phase Ib/IIa single ascending dose study in human heart failure; format: in vivo
Description: as §3, §4
Supine and orthostatic blood pressure and heart rate were recorded pre-dose, as well as 60 and 40 minutes post-dose. Continuous electrocardiographic monitoring starting up to 30-60 minutes prior to the pre-dose echocardiogram through to 5-6 hours post-dose including measurement of ectopic arrhythmias pre- and post-dose.

[6] = Plasma Compound 1 levels in dogs (LC/MS-MS); format: in vivo, dog; details: normal dogs, 0.1 mg/kg i.v.
Description: as §1, §2
Intravenous blood is placed in K2EDTA tubes, centrifuged at 2,000 g for 15 min, plasma decanted, and stored frozen. Compound 1 levels are assessed by a rapid, sensitive liquid chromatography-tandem mass spectrometric (LC/MS-MS) method.
The mobile phase consists of a gradient of 60-100% methanol over 4.5 minutes in 5 mM ammonium bicarbonate with 0.2% NH3H2O, pumped at a flow rate of 0.8 mL/min. Analysis time is 4.5 min and both the analyte and internal standard eluted around 2.0 min. Multiple reactions monitoring (MRM) mode is used to detect Compound 1. MS is operated in the positive ion detection mode. […] Calibration curves are linear from 0.02-500 ng/mL in dog plasma sample matrices. The lower limit of quantification (LLOQ) for plasma was 0.02 ng/mL.

[7] = continuous ECG monitoring to 5-6 hours post-dose
[8] = Compound 1 added after FSK 1 μM

In the case of `CC(CCc1ccc(O)cc1)NCCc1ccc(O)c(O)c1` (stereo not drawn) [dobutamine, reference compound], the “PV loop area (stroke work) and contractility” value ([1]; dobutamine 10 μg/kg/min alone) is reported as “increased PV loop area” and the “plasma cGMP” value (plasma cAMP and cGMP) is reported as “remains unchanged”.
With `CC(C)Cn1c(=O)n(C)c(=O)c2[nH]cnc21` [IBMX, reference compound] the peak calcium transients ([2]; IBMX 100 μM) was “did not alter peak calcium transients” and the “shortening and contraction/calcium decay rates” value ([2]; IBMX 100 μM) was “increased shortening and contraction/calcium decay rates”.
With `COC(=O)CCc1ccc(OCC(O)CNC(C)C)cc1` (stereo not drawn) [esmolol, esmolol HCl, reference compound] the “cardiac responses to 10 μg/kg/min dobutamine” value ([3]; esmolol dose as used) was “effectively blocked cardiac responses” and the “impact of inhibitor pre-treatment alone on cardiovascular hemodynamics” value [3] was “Neither inhibitor pre-treatment alone has a significant impact”.
For `CC(C)NCC(O)c1ccc(O)c(O)c1` (stereo not drawn) [isoproterenol, reference compound], the “whole cell cAMP” value (myocyte cAMP) was “did not measurably increase whole cell cAMP”, the “sarcomere shortening and peak Ca2+” value ([2]; isoproterenol 50 nM) was “increases both sarcomere shortening and peak Ca^2+” and the “sarcomere shortening, peak-Ca2+ and relaxation times” value ([2]; non-saturating dose of isoproterenol) was “increased sarcomere shortening and peak-Ca^2+, and quickened relaxation times”.
In the case of `CN1C(=O)c2c(nn(Cc3ccc(-c4cccc(F)n4)cc3)c2Nc2ccccc2)N2C1=N[C@@H]1CCC[C@@H]12` [Compound 1, (6aR,9aS)-2-(4-(6-fluoropyridin-2-yl)benzyl)-5-methyl-3-(phenyl-amino)-5,6a,7,8,9,9a-hexahydrocyclopenta-[4,5]imidazo[1,2-a]pyrazolo[4,3-e]pyrimidin-4-(2H)-one monophosphate], the “cAMP change as share of the maximal change with IBMX added to Fsk” value (myocyte cAMP; Compound 1 added to Fsk) is reported as “about half”, the cAMP (myocyte cAMP) is reported as “substantially increased by adding Compound 1” and the hemodynamic responses ([1]; 0.1 mg/kg i.v.) is reported as “positive chronotropic, inotropic, lusitropic, and vasodilator responses”. For the same compound, the “inotropy, lusitropy and vasodilation” value ([1]; i.v., heart failure dogs) was “remained significantly improved”, the area under curve [4] was “increasing with dose escalation” and the systemic vascular resistance ([5]; 30 mg) was “greatest decrease”. The “effective arterial elastance (Ea)” value ([5]; 30 mg and 90 mg) was “decreased”, the systemic vascular resistance ([5]; all cohorts (10, 30, 90 mg single oral dose)) was “significantly decrease systemic vascular resistance” and the “mean arterial blood pressure” value ([5]; all dose amounts, versus placebo) was “decrease mean arterial blood pressure versus placebo”. For the same compound, the “atrial fibrillation or atrial flutter” value [5, 7] was “none of the patients developed atrial fibrillation or atrial flutter”, the “sustained supraventricular or ventricular tachycardia” value [5, 7] was “no patient developed sustained supraventricular or ventricular tachycardia” and the ventricular proarrhythmia [5, 7] was “no evidence of ventricular proarrhythmia”. The safety and tolerability ([5]; patients with systolic heart failure (HFrEF)) was “safe and well tolerated”, the “blood pressures and heart rates” value ([5]; throughout the testing period) was “remained stable” and the “time of peak plasma concentration” value [6] was “within minutes”. For the same compound, the “percent sarcomere shortening, peak-Ca2+ transients and decay kinetics” value ([2]; Compound 1 1 μM alone) was “not observed”, the “rise in sarcomere shortening versus time-control” value ([2]; Compound 1+FSK vs FSK for identical duration) was “exceeds that with FSK alone” and the peak calcium transient [2, 8] was “remains unaltered”. For the same compound, the “shortening and relaxation/calcium decay rates” value [2, 8] was “significantly increases shortening and relaxation/calcium decay rates”, the “effect on contraction and calcium transients” value ([2]; Compound 1 alone) was “no effect” and the “Ca2+ transient decay” value ([2]; added to Fsk 1 μM) was “enhanced the Ca2+ decay rate similarly to Cil”. The “peak Ca2+ transient” value ([2]; added to Fsk 1 μM) was “no corresponding increase in peak Ca2+ transient”, the sarcomere shortening ([2]; added to Fsk 1 μM) was “rose as with Cil” and the “peak-Ca2+” value ([2]; added to Iso) was “no longer significantly different from pre-Iso baseline”. The sarcomere shortening ([2]; added to Iso) was “did not change further”, the LV preload ([3]; 0.1 mg/kg i.v. bolus, alone) was “unaltered” and the cardiac output ([3]; 0.1 mg/kg i.v. bolus, alone) was “increases cardiac output”. For the same compound, the heart rate ([3]; 0.1 mg/kg i.v. bolus, alone) was “modestly elevated heart rate”, the relaxation changes ([3]; 0.1 mg/kg i.v. bolus, alone) was “modest” and the systemic resistance ([3]; 0.1 mg/kg i.v. bolus, alone) was “lowered systemic resistance”. For the same compound, the systolic pressure ([3]; 0.1 mg/kg i.v. bolus, alone) was “no change in systolic pressure”, the “contractile and vasodilation effects” value ([3]; after esmolol) was “remain intact” and the heart rate ([3]; after esmolol) was “no longer increases HR”. The hemodynamic responses ([3]; atrially paced at ~20% above sinus node rate) was “nearly identical responses”, the hemodynamic effects ([3]; with MRS-1754) was “fully blocked by MRS-1754” and the hemodynamic effects ([3]; with esmolol) was “unaltered by esmolol”. The “cardiovascular responses to Compound 1 (heart rate, contractility, vasodilation)” value ([3]; with A2BR blocker MRS-1754) was “eliminated all of the cardiovascular responses”, the “plasma cAMP” value (plasma cAMP and cGMP; HF dogs, combination of dobutamine and Compound 1) was “significantly higher” and the “plasma cGMP” value (plasma cAMP and cGMP) was “remains unchanged”.
For `CN(C(=O)CCCOc1ccc2[nH]c(=O)ccc2c1)C1CCCCC1` [cilostamide, reference compound], the cAMP (myocyte cAMP) was “unaltered by addition of Cil”, the “whole cell cAMP” value (myocyte cAMP) was “did not measurably increase whole cell cAMP” and the “percent sarcomere shortening, peak-Ca2+ transients and decay kinetics” value ([2]; Cil 1 μM alone) was “rose and their decay kinetics accelerated”. For the same compound, the “Ca2+ transient decay” value ([2]; added to Fsk 1 μM) was “faster decay of the Ca2+ transient”, the “peak Ca2+ transient” value ([2]; added to Fsk 1 μM) was “increase” and the sarcomere shortening ([2]; added to Fsk 1 μM) was “increase in sarcomere shortening”. For the same compound, the “peak-Ca2+” value ([2]; added to Iso) was “remained elevated over baseline” and the sarcomere shortening ([2]; added to Iso) was “further increased sarcomere shortening”.
For `CCCn1c(=O)c2[nH]c(-c3ccc(OCC(=O)Nc4ccc(C#N)cc4)cc3)nc2n(CCC)c1=O` [MRS-1754, reference compound], the “impact of inhibitor pre-treatment alone on cardiovascular hemodynamics” value [3] was “Neither inhibitor pre-treatment alone has a significant impact”.
